Reference: patent publication US6331555A, “Treatment of platelet derived growth factor related disorders such as cancers” (priority 1999, dated 2001)

Tests used:
[1] = Ex vivo conversion of A10 to B11 in rat plasma
Protocol: Plasma was prepared and frozen in liquid nitrogen. Tissues and organs were resected and immediately frozen in liquid nitrogen. After the addition of an internal standard, plasma samples were acidified with HCl and extracted with acetonitrile. The acetonitrile fraction was evaporated to dryness in a vacuum centrifuge with heating and redissolved in methanol. Tissue and organ samples were homogenized according to the weight ratio of 1:5 (w:v) in 50 mM Tris-HCl, pH 7.4, at 20,000 rev/min, using a tissue homogenizer (Brinkmann Polytron Model PT3000). After the addition of an internal standard, the homogenate was acidified with HCl and then extracted with acetonitrile. The acetonitrile fraction was then extracted with an equal volume of diethyl ether. The ether fraction was evaporated to dryness in a vacuum centrifuge with heating and redissolved in methanol.
Samples for HPLC analysis were injected onto a Hewlett Packard Hypersil 5-μm C18 cartridge column (100×4.6 mm). The mobile phase was methanol:35 mM KH2 PO4 (pH 4.5) 55:45 containing 4 mM triethylamine. The flow rate was 1.2 mL/min. The compounds were monitored by UV absorption at 254 nm using a Hewlett-Packard diode-array detector (HP Model 1090). Plasma and tissue concentrations were determined from standard curves using peak area for quantitation. […]

[2] = LD50 of A10 in BALB/c mice; details: mouse, in vivo, ip
Protocol: All animals wee observed for 7 to 14 days after the last dose was administered. The LD50 was calculated from a plot of % mortality versus dose (log M) using a four parameter logistic equation.

C6 cells = test: Intracerebral C6 tumor, athymic mice, survival; type: in vivo, rat; details: IC C6, athymic mice
Protocol: FIG. 4. In two separate experiments, C6 cells (1×10^5 cells in 4 μL) were implanted into the cerebrum of BALB/c, nu/nu mice. […] V=vehicle control. n=8 to 12 (Expt #1), or 5 (Expt #2) animals per group. * P<0.00001; ** P<0.002; *** P<0.02 compared to vehicle control.
For the mouse IC model, rat C6 glioma cells were harvested and suspended in sterile PBS at a concentration of 2.5×10^7 cells/mL and placed on ice. Cells were implanted into BALB/c, nu/nu mice in the following manner: the frontoparietal scalps of mice were shaved with animal clippers if necessary before swabbing with 70% ethanol. Animals were anesthetized with isofluorane and the needle was inserted through the skull into the left hemisphere of the brain. Cells were dispensed from Hamilton Gas-tight Syringes using 30 gauge 1/2 inch needles fitted with sleeves that allowed only a 3 mm penetration. A repeater dispenser was used for accurate delivery of 4 μL of cell suspension.

PC-3 prostate tumor = test: SC xenograft in mice; type: in vivo, human; details: SCID
Protocol: (§1) Cell lines were grown in appropriate medium (see Appendix 1). Cells were harvested at or near confluency with 0.05% Trypsin-EDTA and pelleted at 450×g for 10 min. Pellets were resuspended in sterile PBS or media (without FBS) to a particular concentration and the cells were implanted into the hindflank of mice. Tumor growth was measured over 3 to 6 weeks using venier calipers. Tumor volumes were calculated as a product of length×width×height unless otherwise indicated. P values were calculated using the Students' t-test.
(§2) The mice were treated for three week.

A375 melanoma = test: SC xenograft in mice; type: in vivo, human
Protocol: as §1, §2

SF763T glioma = test: SC xenograft in mice; type: in vivo, human
Protocol: as §1

Calu-6 lung tumor = test: SC xenograft in mice; type: in vivo, human; details: nu/nu, 20 mg/kg/day, day 28
Protocol: as §1

MCF7 mammary tumor = test: SC xenograft in mice; type: in vivo, human
Protocol: as §1

U118T glioma = test: SC xenograft in mice; type: in vivo, human; details: nu/nu, 15 mg/kg/day, day 47
Protocol: as §1

PA-1 ovarian tumor = test: SC xenograft in mice; type: in vivo, human; details: nu/nu, 20 mg/kg/day, day 36
Protocol: as §1

A549 lung tumor = test: SC xenograft in mice; type: in vivo, human
Protocol: as §1

[3] = system: glioblastoma multiformae (GBM) primary tumor cells; test: Growth of primary tumor cells from glioblastoma patients; type: cell-based, human
Protocol: Viable tumors were placed into medium by the pathologist at the referring institution immediately after surgery, and shipped to Oncotech by overnight delivery. As soon as a tumor was received, a portion was fixed in formalin for sectioning and the remainder trimmed of necrotic, connective and adipose tissues. All tumor manipulations were performed aseptically. The remaining tumor was placed into a Petri dish containing 5 mL of medium (RPMI 1640 supplemented with 10% FBS, 100 IU/mL penicillin, […] streptomycin and L-glutamine) and disaggregated mechanically with scissors into pieces 2 mm or smaller. […]
After enzymatic dispersion into a near single-cell suspension, tumor cells were filtered through nylon mesh, washed in medium, suspended in soft agarose (0.12%) and plated at approximately 20,000 cells per well onto an agarose underlayer (0.4%) in 24-well plates. […] After the appropriate labeling period, tissue culture plates were heated at 60° C. to melt the agarose, the cells harvested with a micro-harvester onto glass fiber filters and the radioactivity determined. Percent inhibition (PCI) was determined using the formula: PCI=1-(CPM treatment group […] CPM control group). Determinations of control group proliferation were performed in quadruplicate, while treatment group proliferation was determined in triplicate. […]

Cc1oncc1C(=O)Nc1ccc(C(F)(F)F)cc1 [Compound A10, 5-methylisoxazole-4 carboxylic acid-(4-trifluromethyl)-anilide]
time of complete conversion to B11 ([1]; 37° C., rat plasma): ≤ 2 h | conversion to B11 in heat-inactivated plasma ([1]; rat, 15 min at 60° C.): does not occur | LD50 [2]: 94 mg/kg | average survival time (C6 cells): significantly increased compared to controls | tumor growth inhibition (PC-3 prostate tumor; 12 mg/kg/day (PBTE:D5W), five days per week, from day 15, after three weeks): about 50% | % Inhibition (PC-3 prostate tumor; 12 mg/kg/day, day 36, treatment from day 15): 47% | tumor growth inhibition (A375 melanoma; 15 mg/kg/day, five days per week, from day 9, after three weeks): about 40% | % Inhibition (A375 melanoma; SCID, 15 mg/kg/day, day 31, treatment from day 9): 35% | % Inhibition (A375 melanoma; nu/nu, 20 mg/kg/day, day 31): 53% | % Inhibition (SF763T glioma; 20 mg/kg): 89% | % Inhibition (SF763T glioma; nu/nu, 20 mg/kg/day, day 22): 85% | In Vivo inhibition (SF763T glioma; xenografted athymic mice): 89% | % Inhibition (Calu-6 lung tumor): 64% | growth of xenograft (MCF7 mammary tumor; 12 to 20 mg/kg/day): failed to significantly inhibit the growth | % Inhibition (MCF7 mammary tumor; SCID, 15 mg/kg/day, day 27, treatment from day 8): 8% | % Inhibition (U118T glioma): 57% | % Inhibition (PA-1 ovarian tumor): 53% | growth of xenograft (A549 lung tumor; 12 to 20 mg/kg/day): failed to significantly inhibit the growth | % Inhibition (A549 lung tumor; SCID, 15 mg/kg/day, day 48, treatment from day 29): 19% | tumor cell growth ([3]; 0 to 400 mM): tumor cell growth decreased for both types of tumors | IC50 ([3]; Homo sapiens, range over six patients, read-out: IC50, GBM tumors): 39 to 198 µM
